Measured values as given in patent EP4793641A1, “NOVEL METHOD FOR ANALYZING BIOMOLECULAR INTERACTIONS” (Kyoto University, priority 2023, dated 2025).
Non-standard residues stand in square brackets, D forms with d. Residues, ends and D or L forms follow the SMILES beside them. Primed or numbered codes have the meaning given here. No end group written: not given here. *: point of attachment. Me′ = methyl group capping the C-terminus; F(-Me) = not defined here; Acm = CC(=O)NC*; tBu = CC(C)(C)*

target: T1, interactions between Talin 1 (TLN1) and integrin subunit beta (ITGB) (Homo sapiens, UniProt Q9Y490); assay: Flip-flop detection mechanism on DNA origami (LgBit/SmBit luminescence), inhibitor screening; format: biochemical; details: inhibition of binding between TLN1 and ITBG
T1 construct: LgBit or SmBit (N-terminal of the HaloTag); made in house
From the text: Two types of systems, i.e., flip-flop detection mechanism and switch detection mechanism, were constructed by using HaloTag, LgBit, SmBit, TLN1, and ITGB. Each of TLN1 (Uniprot ID: Q9Y490) and ITGB1 (Uniprot ID: P05556) was cloned from the registered genetic information. HaloTAg has three chemically modifiable locations at a ligand recognition site, C-terminus, and N-terminus. In this Example, a single-stranded DNA for attaching to DNA origami was connected to a ligand recognition site of HaloTag, a subunit of an interaction complex was connected to the C-terminus, and LgBit or SmBit was connected to the N-terminus.
The outline of the system is disclosed in Figure 23. When TLN1 and ITBG are in a bound state in this system, LgBit and SmBit are at spatially separated positions from each other, with a HaloTag interposed therebetween. In this regard, if an inhibitor is added, complex formation of TLN1 and ITBG is inhibited. As a result, a LgBit-SmBit complex can be formed, and a luminescence reaction progresses.
As a candidate drug for inhibiting the binding between TLN1 and ITBG, peptide inhibitors consisting of 13 amino acids prepared by modifying amino acids in an intracellular region of ITGB3 have been designed (Shen B. et al., A directional switch of integrin signaling and a new antithrombotic strategy. Nature 503, 131-135 (2013)). IC50 values for the peptides shown in the following table were calculated by using the flip-flop detection mechanism described in Example 11 for optimizing the sequence. In this manner, the effect of a large number of compounds on the interaction with a target protein can be readily analyzed in the system of the present disclosed.

Row | Molecule | Inhibitory activity
1 | CSCC[C@H](NC(=O)[C@H](CCCCN)NC(=O)[C@H](CCC(=O)O)NC(=O)[C@H](CCCCN)NC(=O)[C@H](CCC(=O)O)NC(=O)[C@H](Cc1ccccc1)NC(=O)[C@@H](N)CCCCN)C(=O)N[C@@H](CC(N)=O)C(=O)N[C@@H](CSCNC(C)=O)C(=O)N[C@@H](CCCCN)C(=O)N[C@@H](Cc1c[nH]c2ccccc12)C(=O)N[C@@H](CCSC)C(=O)N[C@H](C(=O)O)[C@@H](C)O [FIYM38] (H-KFEKEKMNC(Acm)KWMT-OH) | no inhibition
2 | CC[C@H](C)[C@H](NC(=O)[C@@H]1CCCN1C(=O)[C@H](CC(N)=O)NC(=O)[C@H](CCC(=O)O)NC(=O)CNC(=O)[C@@H](NC(=O)[C@H](CC(=O)O)NC(=O)[C@H](Cc1c[nH]c2ccccc12)NC(=O)[C@H](CCCCN)NC(=O)[C@H](C)NC(=O)[C@H](CC(N)=O)NC(=O)[C@H](CCSC)NC(=O)[C@H](CCCCN)NC(=O)[C@H](CCC(=O)O)NC(=O)[C@H](CCCCN)NC(=O)[C@H](CCC(=O)O)NC(=O)[C@H](Cc1ccccc1)NC(=O)[C@@H](N)CCCCN)[C@@H](C)O)C(=O)N[C@@H](Cc1ccc(O)cc1)C(=O)N[C@@H](CCCCN)C(=O)O [FIYM6] (H-KFEKEKMNAKWDTGENPIYK-OH) | no inhibition
3 | KF(-CI)EKEKMNCKWMT (KFEKEKMNCKWMT) [FIYM18] | no inhibition
4 | CSCC[C@H](NC(=O)[C@H](CCCCN)NC(=O)[C@H](CCC(=O)O)NC(=O)[C@H](CCCCN)NC(=O)[C@H](CCC(=O)O)NC(=O)[C@H](Cc1ccccc1)NC(=O)[C@@H](N)CCCCN)C(=O)N[C@@H](CC(N)=O)C(=O)N[C@H](C(=O)N[C@@H](CCCCN)C(=O)N[C@@H](Cc1c[nH]c2ccccc12)C(=O)N[C@@H](CCSC)C(=O)N[C@H](C(=O)O)[C@@H](C)O)[C@@H](C)O [FIYM34] (H-KFEKEKMNTKWMT-OH) | no inhibition
5 | CSCC[C@H](NC(=O)[C@H](Cc1c[nH]c2ccccc12)NC(=O)[C@H](CCCCN)NC(=O)[C@H](CS)NC(=O)[C@H](CC(N)=O)NC(=O)[C@H](CCSC)NC(=O)[C@H](CCCCN)NC(=O)[C@H](CCC(=O)O)NC(=O)[C@H](CCCCN)NC(=O)[C@H](CCC(=O)O)NC(=O)[C@H](Cc1ccccc1)NC(=O)[C@@H](N)CCCCN)C(=O)N[C@@H](CCCCN)C(=O)O [FIYM11] (H-KFEKEKMNCKWMK-OH) | no inhibition
6 | CSCC[C@H](NC(=O)[C@H](CCCCN)NC(=O)[C@H](CCC(=O)O)NC(=O)[C@H](CCCCN)NC(=O)[C@H](CCC(=O)O)NC(=O)[C@H](Cc1ccccc1)NC(=O)[C@@H](N)CCCCN)C(=O)N[C@@H](CC(N)=O)C(=O)N[C@@H](CS)C(=O)N[C@@H](CCCCN)C(=O)N[C@@H](Cc1c[nH]c2ccccc12)C(=O)N[C@@H](CC(=O)O)C(=O)N[C@H](C(=O)O)[C@@H](C)O [FIYM8] (H-KFEKEKMNCKWDT-OH) | no inhibition
7 | CSCC[C@H](NC(=O)[C@H](CCCNC(=N)N)NC(=O)[C@H](CCC(=O)O)NC(=O)[C@H](Cc1ccccc1)NC(=O)[C@@H](N)CCCCN)C(=O)N[C@@H](CC(N)=O)C(=O)N[C@@H](CS)C(=O)N[C@@H](CCCCN)C(=O)N[C@@H](Cc1c[nH]c2ccccc12)C(=O)N[C@@H](CCSC)C(=O)N[C@H](C(=O)O)[C@@H](C)O [FIYM20] (H-KFERMNCKWMT-OH) | no inhibition
8 | CC[C@H](C)[C@H](NC(=O)[C@@H]1CCCN1C(=O)[C@H](CC(N)=O)NC(=O)[C@H](CCC(=O)O)NC(=O)CNC(=O)[C@@H](NC(=O)[C@H](CC(=O)O)NC(=O)[C@H](Cc1c[nH]c2ccccc12)NC(=O)[C@@H](N)CCCCN)[C@@H](C)O)C(=O)N[C@@H](Cc1ccc(O)cc1)C(=O)N[C@@H](CCCCN)C(=O)O [FIYM4] (H-KWDTGENPIYK-OH) | no inhibition
9 | CSCC[C@H](NC(=O)[C@H](CCCCN)NC(=O)[C@H](CCC(=O)O)NC(=O)[C@H](CCCCN)NC(=O)[C@H](CCC(=O)O)NC(=O)[C@H](Cc1ccccc1)NC(=O)[C@H](CCCCN)NC(=O)[C@@H]1CCCN1C(=O)CN)C(=O)N[C@@H](CC(N)=O)C(=O)N[C@@H](CS)C(=O)N[C@@H](CCCCN)C(=O)N[C@@H](Cc1c[nH]c2ccccc12)C(=O)N[C@@H](CCSC)C(=O)N[C@H](C(=O)O)[C@@H](C)O [FIYM55] (H-GPKFEKEKMNCKWMT-OH) | no inhibition
10 | CSCC[C@H](NC(=O)[C@H](CCCCN)NC(=O)[C@H](CCC(=O)O)NC(=O)[C@H](CCCCN)NC(=O)[C@H](CCC(=O)O)NC(=O)[C@H](Cc1ccccc1)NC(=O)[C@H](CCCCN)NC(=O)[C@@H]1CCCN1)C(=O)N[C@@H](CC(N)=O)C(=O)N[C@@H](CS)C(=O)N[C@@H](CCCCN)C(=O)N[C@@H](Cc1c[nH]c2ccccc12)C(=O)N[C@@H](CCSC)C(=O)N[C@H](C(=O)O)[C@@H](C)O [FIYM54] (H-PKFEKEKMNCKWMT-OH) | no inhibition
11 | CSCC[C@H](NC(=O)[C@H](Cc1c[nH]c2ccccc12)NC(=O)[C@H](CCCCN)NC(=O)[C@H](CS)NC(=O)[C@H](CC(N)=O)NC(=O)[C@H](CCSC)NC(=O)[C@H](CCCCN)NC(=O)[C@H](CCC(=O)O)NC(=O)[C@H](CCCCN)NC(=O)[C@H](CCC(=O)O)NC(=O)[C@@H](N)Cc1ccccc1)C(=O)O [FIYM24] (H-FEKEKMNCKWM-OH) | no inhibition

same assay, conditions: inhibition of binding between TLN1 and ITBG, read-out: Inhibitory activity

Row | Molecule | IC50 [µM]
12 | C[C@H](NC(=O)[C@H](CCCNC(=N)N)NC(=O)[C@H](C)NC(=O)[C@H](CCCNC(=N)N)NC(=O)[C@H](CCC(=O)O)NC(=O)[C@H](CCC(=O)O)NC(=O)[C@H](CCC(=O)O)NC(=O)[C@H](Cc1ccccc1)NC(=O)[C@@H](N)CCCCN)C(=O)N[C@@H](CCCCN)C(=O)N[C@@H](Cc1c[nH]c2ccccc12)C(=O)N[C@@H](CC(=O)O)C(=O)N[C@H](C(=O)O)[C@@H](C)O [FIYM45] (H-KFEEERARAKWDT-OH) | 314
13 | CSCC[C@H](NC(=O)[C@H](Cc1c[nH]c2ccccc12)NC(=O)[C@H](CCCCN)NC(=O)[C@H](CS)NC(=O)[C@H](CC(N)=O)NC(=O)[C@H](CCSC)NC(=O)[C@H](CCCCN)NC(=O)[C@H](CCC(=O)O)NC(=O)[C@H](CCCCN)NC(=O)[C@H](CCC(=O)O)NC(=O)[C@H](Cc1ccccc1)NC(=O)[C@@H](N)CCCCN)C(=O)O [FIYM22] (H-KFEKEKMNCKWM-OH) | 472
14 | CSCC[C@H](NC(=O)[C@H](CCCCN)NC(=O)[C@H](CCC(=O)O)NC(=O)[C@H](CCCCN)NC(=O)[C@H](CCC(=O)O)NC(=O)[C@H](Cc1ccccc1)NC(=O)[C@@H](N)CCCCN)C(=O)N[C@@H](CC(N)=O)C(=O)N[C@@H](CSC(C)(C)C)C(=O)N[C@@H](CCCCN)C(=O)N[C@@H](Cc1c[nH]c2ccccc12)C(=O)N[C@@H](CCSC)C(=O)N[C@H](C(=O)O)[C@@H](C)O [FIYM40] (H-KFEKEKMNC(tBu)KWMT-OH) | 110
15 | Ace-KFEKEKMNCKWMT-Me (Ace-KFEKEKMNCKWMT-{Me′}) [FIYM15] | 41.2
16 | CSCC[C@H](NC(=O)[C@H](CCCCN)NC(=O)[C@H](CCC(=O)O)NC(=O)[C@H](CCCCN)NC(=O)[C@H](CCC(=O)O)NC(=O)[C@H](Cc1ccccc1)NC(=O)[C@@H](N)CCCCN)C(=O)N[C@@H](CC(N)=O)C(=O)N[C@@H](CS)C(=O)N[C@@H](CCCCN)C(=O)N[C@@H](Cc1c[nH]c2ccccc12)C(=O)N[C@@H](CCSC)C(=O)N[C@H](C(=O)O)[C@@H](C)O [FIYM10] (H-KFEKEKMNCKWMT-OH) | 5.7

target: Talin 1 (TLN1) (UniProt Q9Y490); assay: flip-flop luminescence detection on DNA origami, inhibition of the TLN1-ITGB complex; details: not given
Sequence (Q9Y490 1-405): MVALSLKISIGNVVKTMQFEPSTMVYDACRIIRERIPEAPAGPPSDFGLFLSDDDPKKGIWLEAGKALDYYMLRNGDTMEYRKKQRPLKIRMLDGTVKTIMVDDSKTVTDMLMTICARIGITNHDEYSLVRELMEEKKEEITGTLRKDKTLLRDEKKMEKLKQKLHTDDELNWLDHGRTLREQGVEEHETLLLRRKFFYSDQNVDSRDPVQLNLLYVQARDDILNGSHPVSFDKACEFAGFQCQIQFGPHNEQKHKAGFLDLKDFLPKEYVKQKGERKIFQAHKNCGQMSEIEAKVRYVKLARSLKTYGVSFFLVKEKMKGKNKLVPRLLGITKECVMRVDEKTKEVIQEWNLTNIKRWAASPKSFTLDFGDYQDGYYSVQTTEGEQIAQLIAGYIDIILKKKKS

Row | Molecule | IC50 [µM]
17 | Ace-KFEKEKMNCKWMT-{Me′} [FIYM15] | 41.2
18 | K[F(-Me)]EKEKMNCKWMT (reading uncertain; also: printed as KF(-Me)EKEKMNCKWMT) [FIYM19] | 212
